{
  "source": "paper PMC13267291",
  "about": "“In vivo functional profiling and structural characterization of the human GLP1R A316T variant” (Science Advances, 2026)",
  "key": {"[1]": {"test_system": "SNAP/FLAG-hGLP1R^A316T versus ^WT", "assay": "Real-time cytosolic calcium assay (Cal-520, AM) in transduced hGLP1R^-/- mouse islets", "type": "cell-based, human", "conditions": "100 nM; 6 mM glucose; AUC; n = 3-4; fig. S7D-H", "procedure": "signal serially monitored for 30 min. The TR-FRET ratio, i.e. the ratio of fluorescence intensities at 590 and 490 nm, was considered indicative of the proximity of the GLP-1R ECD to the plasma membrane.\nBaseline-normalised AUCs were used to generate concentration– response curves fitted using GraphPad Prism 10.1.2, with logEC50 and Emax calculated for each replicate dose response curve.\nReal- time c ytosolic c alcium a ssay hGLP1R-/- mouse islets were transduced with pAV- SNAP/FLAG-hGLP1RWT or A316T adenoviruses for 24 hours, labelled with the Ca2+ dye Cal-520, AM (4.5 μM; Stratech) diluted in KBRH buffer containing 6 mM glucose for 1 hour and encased in Matrigel onto […] glass bottom MatTek dishes. Islets were then imaged every 6 s at 488 nm using a Nikon Eclipse Ti microscope with an ORCA-Flash 4.0 camera (Hamamatsu) and Metamorph software (Molecular Devices) at 37°C on a heated stage before and after addition of the indicated GLP-1RA followed by 11 mM glucose and then 20 mM KCl at the indicated time points. Raw fluorescence intensity traces from islet ROIs were extracted using Fiji. Responses were plotted relative to the average fluorescence intensity during the 6 mM glucose baseline period, before agonist addition, and AUCs separately calculated for the GLP- 1RA + 6 mM and 11 mM glucose […]\nIsolation o f detergent-resistant membrane (D RM) fractions\nTo purify lipid rafts, […] fractions were isolated from INS-1 832/3 Glp1r-/- SNAP/FLAG-hGLP1RWT or A316T cells by ultracentrifugation based on their insolubility in non-ionic detergents at 4°C and their low density because of their high lipid-to- protein ratio. Cells seeded onto 6-cm dishes were stimulated ± 100 […]\nmM tris-HCl, pH 7.0 buffer supplemented with cOmplete EDTA-free protease inhibitor cocktail (Roche) and phosphatase inhibitor cocktail 2 (Sigma-Aldrich) for 10-15 minutes on a rocking platform at 4°C. The cell suspension was collected and homogenised by passing through a 21-gauge needle, followed by ultracentrifugation at 63,000 g f or 1 hour at 4°C with a Sorvall Discovery M120 ultracentrifuge. Pellets"}, "[2]": {"test_system": "hGLP1R^A316T-SmBiT versus hGLP1R^WT-SmBiT", "assay": "Mini-Gs recruitment by NanoBiT complementation", "type": "cell-based, human", "conditions": "serial doses up to 100 nM; n = 5; Fig. 7L", "procedure": "For mini-Gs recruitment, INS-1 832/3 Glp1r^−/− cells were seeded in 6-cm dishes and transiently cotransfected with 1.7 μg each of hGLP1R^WT or ^A316T-SmBiT and LgBiT-mini-Gs constructs for 24 hours. Cells were then detached, resuspended in Hanks’ balanced salt solution (HBSS) containing NanoGlo Live Cell Reagent (1:20; Promega) with furimazine, and seeded onto white 96-well half-area plates. Baseline luminescence was immediately recorded over 8 min at 37°C in a Flexstation 3 plate reader (Molecular Devices) and for a further 30 min after GLP-1RA addition at serial doses up to 100 nM. Readings were taken every 30 s and normalized to average well baseline, and average vehicle-induced signal was subtracted to establish the agonist-induced effect. To measure β-arrestin 2 recruitment, cells were processed as above with slight modifications: INS-1 832/3 Glp1r^−/− cells were cotransfected with 1.77 μg each of hGLP1R^WT or ^A316T-SmBiT and LgBiT–β-arrestin 2 plasmids for 24 hours, and GLP-1RAs were added at serial doses up to 1 μM. AUCs were calculated for each agonist concentration and fitted to log(agonist) versus response four-parameter curves using GraphPad Prism 10.1.2, with errors propagated for mini-Gs over β-arrestin 2 recruitment bias calculations."}, "[3]": {"test_system": "SNAP/FLAG-hGLP1R^A316T versus ^WT", "assay": "Real-time cAMP imaging (cADDis) in INS-1 832/3 sublines", "type": "cell-based, rat", "conditions": "100 nM, n = 4, no significant differences, fig. S8K-P", "procedure": "(§1) To measure cAMP, hGLP1R^A316T/A316T versus ^+/+ control mouse islets, or INS-1 832/3 SNAP/FLAG-hGLP1R^WT versus ^A316T cells cultured on glass-bottom MatTek dishes, were transduced with cADDis (Green Gs cADDis cAMP Kit, Montana Molecular), a baculovirus genetically encoding a fluorescent cAMP in situ biosensor, following the manufacturer’s instructions. Transduced islets were subsequently encased into Matrigel on glass-bottom MatTek dishes 24 hours after transduction, and both islets and cells were imaged at λex = 488 nm in a Nikon Eclipse Ti spinning disk confocal microscope and 20× objective with an ORCA-Flash 4.0 camera (Hamamatsu) for time-lapse recordings with image acquisitions every 6 s in KRBH buffer containing 0.1% (w/v) BSA and 6 mM glucose for 2 min to record the baseline, with 100 nM GLP-1RA subsequently added by manual pipetting, and islets imaged for a further 5 min before addition of 100 μM IBMX + 10 μM forskolin for the final 2 min of the acquisition. Raw green fluorescence intensity traces were extracted from whole islet regions of interest (ROIs) using Fiji, and mean intensities were calculated for each ROI and time point. Responses were plotted relative to average fluorescence intensity per islet during the baseline period before GLP-1RA addition."}, "[4]": {"test_system": "SNAP/FLAG-hGLP1R^A316T versus ^WT", "assay": "GLP-1R recycling assay", "type": "cell-based, human", "conditions": "INS-1 832/3 sublines; 1 hour agonist, 1 and 3 hours recycling; n = 3-4; Fig. 7H", "procedure": "INS-1 832/3 Glp1r^−/− SNAP/FLAG-hGLP1R^WT or ^A316T cells were seeded as above for 24 hours, washed with HBSS, pretreated with vehicle or GLP-1RA for 1 hour at 37°C in complete medium, washed again, and treated with 100 nM exendin-4–TMR in reverse time order for 3 hours and 1 hour at 37°C in complete medium. Plates were then promptly imaged after washing as above. In this assay, total exendin-4–TMR uptake is indicative of residual surface receptor at the end of the GLP-1RA treatment and cumulative reappearance of the surface receptor during the recycling period."}, "[5]": {"test_system": "human GLP-1R A316T versus WT", "assay": "Real-time cAMP imaging (cADDis) in mouse islets", "type": "cell-based", "conditions": "chow-fed mouse islets; 100 nM; 6 mM glucose; AUC; n = 4; not significant; Fig. 5D-F", "procedure": "as §1"}},
  "data": [
    {"substance": "GLP-1(7-36)NH2", "values": [
      {"measurement": "Agonist-induced Ca^2+ responses, A316T versus WT", "setting": "[1]", "value": "not significantly different"},
      {"measurement": "A316T mini-Gs recruitment versus WT, log(Emax/EC50)", "setting": "[2]", "value": "No significant changes"},
      {"measurement": "cAMP responses, A316T versus WT", "setting": "[3]", "value": "tendency for increased cAMP"},
      {"measurement": "A316T receptor recycling to the plasma membrane versus WT", "setting": "[4]", "value": "significantly reduced"}
    ]},
    {"substance": "exendin-4", "values": [
      {"measurement": "Agonist-induced Ca^2+ responses, A316T versus WT", "setting": "[1]", "value": "not significantly different"},
      {"measurement": "A316T mini-Gs recruitment versus WT, log(Emax/EC50)", "setting": "[2]", "value": "No significant changes"},
      {"measurement": "cAMP responses, A316T versus WT", "setting": "[3]", "value": "reduced responses"},
      {"measurement": "A316T receptor recycling to the plasma membrane versus WT", "setting": "[4]", "value": "not different from WT"},
      {"measurement": "cAMP response to agonist, A316T/A316T versus +/+ islets", "setting": "[5]", "value": "trend for reduced cAMP"}
    ]},
    {"substance": "exendin-F1", "values": [
      {"measurement": "Agonist-induced Ca^2+ responses, A316T versus WT", "setting": "[1]", "value": "increased"},
      {"measurement": "A316T mini-Gs recruitment versus WT, log(Emax/EC50)", "setting": "[2]", "value": "increased potency"},
      {"measurement": "cAMP responses, A316T versus WT", "setting": "[3]", "value": "tendency for increased cAMP"},
      {"measurement": "A316T receptor recycling to the plasma membrane versus WT", "setting": "[4]", "value": "not different from WT"},
      {"measurement": "cAMP response to agonist, A316T/A316T versus +/+ islets", "setting": "[5]", "value": "near-significant increase in cAMP"}
    ]}
  ]
}
